Where “and” joins values, the source holds several entries; their conditions need not be identical. Equal values may be shown once.
Tested on: 415267-285-R-J2-PDC complex spheroid viability
Assay: Anticancer human tumor 415267-285-R-J2-PDC patient-derived breast carcinoma cell line growth inhibition [POLQ]
Conditions: for viability, T/C: stronger effect = lower value
Method: Multicellular complex tumor spheroid response to Polymerase (POL) inhibitors (novobiocin, ART-558, RP6685) in combination with a variety of drugs and investigational agents in selected tumor cell lines
The POL inhibitors (novobiocin, ART-558, and RP6685) were evaluated both individually and in combination with standard of care and investigational anticancer small molecules within a complex spheroid model of solid tumors. . Complex spheroids include a stromal component modeled by human endothelial cells (HUVEC) and fibroblasts modeled by human mesenchymal stem cells (MSCs). The concentration ranges selected for each drug and investigational agent were based upon clinically achievable concentrations if the clinical Cmax of the agent was known.
Compounds. The drugs and investigational agents: novobiocin (NSC847541), ART-558 (NSC835418), RP-6685 (NSC848927), peposertib (NSC802822), ceralasertib (NSC780249), elimusertib (NSC800525), camonsertib (NSC841442), AZD-1390 (NSC803789), olaparib (NSC753686), talazoparib (NSC767125), rucaparib (NSC756644), sotorasib (NSC818433), MRTX-1133 (NSC836407), SN-38 (NSC673596), topotecan (NSC609699), epotoside (NSC141540), doxorubicin (NSC123127), gemcitabine (NSC613327), 5-fluorouracil (NSC19893), paclitaxel (NSC125973), vemurafenib (NSC761431), MSA-2 (NSC828583), SN-011 (NSC837082), adavosertib (NSC754352), prexasertib (NSC758257), carboplatin (NSC241240) and oxaliplatin (NSC266046), were obtained from the National Cancer Institute (NCI) Developmental Therapeutics Program Chemical Repository (21). The FDA-approved anticancer drug set is available from the Developmental Therapeutics Program at https://dtp.cancer.gov/organization/dscb/obtaining/. […] The stock solutions were prepared in dimethyl sulfoxide (DMSO, Sigma-Aldrich, St. Louis, MO, cat. D2650), except for the platinum compounds which were prepared in saline (Quality Biological, Gaithersburg, MD, cat. 114-055-101), at 800-fold the tested concentration and stored at -70 degrees C prior to their use. All drugs and investigational agents were tested over a range starting from a high concentration at or near the clinical Cmax and decreasing in half-log increments. If the clinical Cmax for an agent had not been determined, the highest concentration tested was 10 microM, except for SN-38, which was tested at a high concentration of 1 microM.
Cell Culture. All cells were maintained in an incubator at 37 degrees C and 5% CO2 with 95% humidity. The PDC lines were cultured according to standard operating procedures established by the NCI PDMR (https://pdmr.cancer.gov). Table 3 of the manuscript, lists the cell lines along with the number of the three cell types plated to form the mct-spheroids and media for tumor cell growth. After thawing, all PDC lines, except 997537-175-T-J1-PDC and 415267-285-R-J2-PDC, were cultured in Matrigel-coated flasks prepared with a working solution of 1X Ham's F-12 nutrient mix, without supplementation (Thermo Fisher Scientific, cat. 11765054), 100 U/mL penicillin-streptomycin (Thermo Fisher Scientific, cat. 15140122), and 2.5% Matrigel (Corning Inc., Corning, NY, cat. 354248) for the first three passages. The two PDC lines 997537-175-T-J1-PDC and 415267-285-R-J2-PDC were cultured on uncoated flasks. The 857933-349-R-J2-PDC line was cultured in 6C/Colon 1B media containing advanced DMEM/F-12 (Thermo Fisher Scientific, cat. 12634028), 10 mM HEPES (Thermo Fisher Scientific, cat. 15630080), 1X GlutaMAX supplement (Thermo Fisher Scientific, cat. 35050061), 0.1 mg/mL primocin (InvivoGen, San Diego, CA, cat. ant-pm-2), 10% defined fetal bovine serum, heat inactivated (HyClone Laboratories Inc., Logan, UT, cat. SH30070.03HI), 50% L-WRN conditioned media (ATCC, cat. CRL-3276), 1.25 mM N-Acetyl-L-cysteine (Sigma-Aldrich, cat. A9165), 10 mM nicotinamide (Sigma-Aldrich, cat. N0636), 1X B-27 supplement (Thermo Fisher Scientific, cat. 17504044), 1X N-2 supplement (Thermo Fisher Scientific, cat. […]
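Also: spheroids exposed to compounds for one week before readout.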
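For viability, T/C in this document: luminescence used as stand-in measure of viable cells; 100% = DMSO vehicle control viability.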

Q: Which results are given for `COC1C(OC(N)=O)C(O)C(Oc2ccc3c(O)c(NC(=O)c4ccc(O)c(CC=C(C)C)c4)c(=O)oc3c2C)OC1(C)C` (configuration not stated)?
A: viability, T/C (compound 0.0316 µM): 99.2% [middle of 13 runs]; viability, T/C (compound 0.1 µM): 105% [middle of 13 runs]; viability, T/C (compound 0.316 µM): 99.3% [middle of 13 runs]; viability, T/C (compound 3.16 µM): 102% [middle of 13 runs]; viability, T/C (compound 10 µM): 102% [middle of 13 runs]; IC50 (compound alone, run of 01/08/2024): > 10 µM

Q: What does the source list for `CC(C)n1c(=O)n(C)c2cnc3cc(F)c(-c4ccc(OCCCN5CCCCC5)nc4)cc3c21`?
A: viability, T/C (compound 0.0316 µM): 92.3% and 106% and 90.9%; viability, T/C (compound 0.1 µM): 97% and 105% and 101%; viability, T/C (compound 0.316 µM): 102% and 115% and 91.9%; viability, T/C (compound 1 µM): 112% and 121% and 108%; viability, T/C (compound 3.16 µM): 110% and 108% and 96.3%; viability, T/C (compound 10 µM): 83.6% and 103% and 97.1%; IC50 (curve of compound): > 10 µM

Q: Which IC50 (curve of first compound, second compound 0.0316 µM) does the source give for `CCc1cc2c(N3CCc4c(cc(Cn5ccnc5)cc4-c4cn(C)nc4C(F)(F)F)C3=O)cc(C)nc2c(OC)n1` + Nc1ccc(C#CCN(C(=O)Cc2ncc(C(F)(F)F)cc2C(F)(F)F)c2ccc(F)cc2)nn1 here?
A: The IC50 was > 10 µM.

Q: And the IC50 (curve of first compound, second compound 0.1 µM)?
A: The IC50 was > 10 µM.

Q: And the IC50 (curve of first compound, second compound 0.316 µM)?
A: Its IC50 is > 10 µM.

Q: And the IC50 (curve of first compound, second compound 1 µM)?
A: The IC50 was > 10 µM.

Q: What about the IC50 (curve of first compound, second compound 3.16 µM) of the same molecule?
A: The IC50 was > 10 µM.

Q: What about the IC50 (curve of first compound, second compound 10 µM) of the same molecule?
A: Its IC50 is > 10 µM.

Q: And the viability, T/C (second compound 0.0316 µM, first compound 0.0316 µM)?
A: Its viability, T/C is 91.4%.

Q: And the viability, T/C (second compound 0.0316 µM, first compound 0.1 µM)?
A: Its viability, T/C is 91.6%.

Q: What about the viability, T/C (second compound 0.0316 µM, first compound 0.316 µM) of the same molecule?
A: The viability, T/C was 88.7%.

Q: And the viability, T/C (second compound 0.0316 µM, first compound 1 µM)?
A: Its viability, T/C is 85.9%.

Q: What about the viability, T/C (second compound 0.0316 µM, first compound 3.16 µM) of the same molecule?
A: The viability, T/C was 82.5%.

Q: What about the viability, T/C (second compound 0.0316 µM, first compound 10 µM) of the same molecule?
A: Its viability, T/C is 66.7%.

Q: What about the viability, T/C (second compound 0.1 µM, first compound 0.0316 µM) of the same molecule?
A: Its viability, T/C is 99.5%.

Q: What about the viability, T/C (second compound 0.1 µM, first compound 0.1 µM) of the same molecule?
A: The viability, T/C was 87.1%.

Q: And the viability, T/C (second compound 0.1 µM, first compound 0.316 µM)?
A: The viability, T/C was 80.8%.

Q: And the viability, T/C (second compound 0.1 µM, first compound 1 µM)?
A: The viability, T/C was 94.8%.

Q: And the viability, T/C (second compound 0.1 µM, first compound 3.16 µM)?
A: Its viability, T/C is 88.1%.

Q: And the viability, T/C (second compound 0.1 µM, first compound 10 µM)?
A: Its viability, T/C is 66.8%.

Q: And the viability, T/C (second compound 0.316 µM, first compound 0.0316 µM)?
A: Its viability, T/C is 91.7%.

Q: What about the viability, T/C (second compound 0.316 µM, first compound 0.1 µM) of the same molecule?
A: Its viability, T/C is 88.8%.

Q: And the viability, T/C (second compound 0.316 µM, first compound 0.316 µM)?
A: Its viability, T/C is 98.4%.

Q: What about the viability, T/C (second compound 0.316 µM, first compound 1 µM) of the same molecule?
A: The viability, T/C was 93.2%.

Q: And the viability, T/C (second compound 0.316 µM, first compound 3.16 µM)?
A: The viability, T/C was 80%.

Q: What about the viability, T/C (second compound 0.316 µM, first compound 10 µM) of the same molecule?
A: Its viability, T/C is 68.1%.

Q: And the viability, T/C (second compound 1 µM, first compound 0.0316 µM)?
A: Its viability, T/C is 86%.

Q: What about the viability, T/C (second compound 1 µM, first compound 0.1 µM) of the same molecule?
A: The viability, T/C was 94.7%.

Q: And the viability, T/C (second compound 1 µM, first compound 0.316 µM)?
A: Its viability, T/C is 101%.

Q: What about the viability, T/C (second compound 1 µM, first compound 1 µM) of the same molecule?
A: The viability, T/C was 94.9%.

Q: And the viability, T/C (second compound 1 µM, first compound 3.16 µM)?
A: The viability, T/C was 84%.

Q: What about the viability, T/C (second compound 1 µM, first compound 10 µM) of the same molecule?
A: The viability, T/C was 64.1%.

Q: And the viability, T/C (second compound 3.16 µM, first compound 0.0316 µM)?
A: The viability, T/C was 97.6%.

Q: What about the viability, T/C (second compound 3.16 µM, first compound 0.1 µM) of the same molecule?
A: Its viability, T/C is 87.9%.

Q: And the viability, T/C (second compound 3.16 µM, first compound 0.316 µM)?
A: The viability, T/C was 86.5%.

Q: What about the viability, T/C (second compound 3.16 µM, first compound 1 µM) of the same molecule?
A: Its viability, T/C is 104%.

Q: And the viability, T/C (second compound 3.16 µM, first compound 3.16 µM)?
A: The viability, T/C was 86.6%.

Q: What about the viability, T/C (second compound 3.16 µM, first compound 10 µM) of the same molecule?
A: The viability, T/C was 70.8%.

Q: And the viability, T/C (second compound 10 µM, first compound 0.0316 µM)?
A: The viability, T/C was 98.9%.

Q: What about the viability, T/C (second compound 10 µM, first compound 0.1 µM) of the same molecule?
A: The viability, T/C was 79.9%.

Q: What about the viability, T/C (second compound 10 µM, first compound 0.316 µM) of the same molecule?
A: Its viability, T/C is 97.4%.

Q: What about the viability, T/C (second compound 10 µM, first compound 1 µM) of the same molecule?
A: The viability, T/C was 82.2%.

Q: And the viability, T/C (second compound 10 µM, first compound 3.16 µM)?
A: Its viability, T/C is 79.1%.

Q: And the viability, T/C (second compound 10 µM, first compound 10 µM)?
A: The viability, T/C was 65.1%.

Q: With `CC(=O)O[C@H]1C(=O)[C@@]2(C)[C@H]([C@H](OC(=O)c3ccccc3)[C@]3(O)C[C@H](OC(=O)[C@H](O)[C@@H](NC(=O)c4ccccc4)c4ccccc4)C(C)=C1C3(C)C)[C@]1(OC(C)=O)CO[C@@H]1C[C@@H]2O` as the molecule, how does the viability, T/C (compound 0.00949 µM) read?
A: The viability, T/C was 16.9% and 25% and 13%.

Q: What about the viability, T/C (compound 0.03 µM) of the same molecule?
A: The viability, T/C was 9.1% and 9.98% and 8.84%.

Q: What about the viability, T/C (compound 0.0949 µM) of the same molecule?
A: The viability, T/C was 8.45% and 7.67% and 7.24%.

Q: What about the viability, T/C (compound 0.3 µM) of the same molecule?
A: The viability, T/C was 8.09% and 8.99% and 7.37%.

Q: What about the viability, T/C (compound 0.949 µM) of the same molecule?
A: Its viability, T/C is 6.85% and 7.15% and 7.58%.

Q: And the viability, T/C (compound 3 µM)?
A: Its viability, T/C is 7.67% and 7.6% and 8.18%.

Q: And the IC50 (curve of compound)?
A: Its IC50 is < 0.00949 µM.
